# Assay results as given in patent US12415834B2, “GhR-binding peptide and composition comprising same” (priority 2021, dated 2025).
# Starred links: 1 amine or outer side, 2 acyl side, 3 side chain; linkers in the order of their positions; H or OH if unused. Positions of bridges follow the written chain, without caps; N, C: chain ends. Non-standard residues stand in square brackets, D forms with d. Residues, ends and D or L forms follow the SMILES beside them. Groups on a side chain read outwards from the residue. *: point of attachment. X3 = NC(=O)[C@H](CCCCN*)NC(=O)CC[C@H](NC(=O)CC[C@H](NC(=O)CCCCCCCCCCCCCCC(=O)O)C(=O)O)C(=O)O; Trp(1-CH2CO) = O=C([C@H](Cc1cn(CC(=O)[*:3])c2ccccc12)N[*:1])[*:2]; Trp(5-OMe) = COc1ccc2[nH]cc(C[C@H](N)C(=O)O)c2c1; Butanoyl(4-(4-I-phenyl)) = O=C(CCCc1ccc(I)cc1)*; Trp(5-OH) = N[C@@H](Cc1c[nH]c2ccc(O)cc12)C(=O)O; Phe(4-COOH) = N[C@@H](Cc1ccc(C(=O)O)cc1)C(=O)O; Piperazinyl(4-CH2COOH) = O=C(O)CN1CCN(*)CC1; X7 = O=C(O)CN1CCC(N[*:1])(C(=O)[*:2])CC1; γGlu = O=C(O)[C@H](CCC(=O)[*:2])N[*:1]; 4Pal = N[C@@H](Cc1ccncc1)C(=O)O; NMeK = CN[C@@H](CCCCN)C(=O)O; Aib = CC(C)(N)C(=O)O; CO = O=C([*:1])[*:2]
# Target: T1, Recombinant human GhR-Fc protein (Homo sapiens, UniProt P10912)
# T1 construct: purchased R&D Systems
# Test: SPR binding assay (Biacore T200, single-cycle kinetics) of peptides against immobilized human GhR-Fc
# Details: SPR, hGhR; Table 1 bicyclic peptides; KD calculated from ka and kd; read-out: KD
# Experimental: SPR assay was performed using Biacore T200 (cytiva: Former GE Healthcare). After the equilibration of Series S Sensor Chip CM5 (produced by cytiva: Former GE Healthcare) with Running Buffer (HBS-EP with 1% (v/v) DMSO), an EDC/NHS mixture was injected at a flow rate of 10 μL/min for 7 minutes to thereby activate the functional groups on sensor chip. Recombinant human GhR-Fc protein (R&D Systems) in 10 mM Acetate (pH 4.0) was injected immobilized to at a flow rate of 5 μL/min. It took 7 minutes to immobilize the GhR on the substrate surfaces of the sensor chip. Then Ethanolamine was injected at a flow rate of 10 μL/min for 7 minutes. 1M Ethanolamine (aq.) was injected at a flow rate of 10 μL/min for 420 seconds for capping.
# Using these Peptide Samples, kinetics of peptides against human GhR-Fc protein were measured. The method adopted for sample measurement was a single-cycle kinetics method. The analysis was conducted using the evaluation software provided with Biacore T200. A DMSO correction curve obtained by solvent correction measurements was applied for the analysis. Kinetics fitting was done on the difference data obtained by subtracting the baseline data from sample measurement data. KD values were calculated based on the association rate constant (ka) and dissociation rate constant (kd). […]
# T1 sequence (P10912 with tags, fused parts or gaps limits assumed): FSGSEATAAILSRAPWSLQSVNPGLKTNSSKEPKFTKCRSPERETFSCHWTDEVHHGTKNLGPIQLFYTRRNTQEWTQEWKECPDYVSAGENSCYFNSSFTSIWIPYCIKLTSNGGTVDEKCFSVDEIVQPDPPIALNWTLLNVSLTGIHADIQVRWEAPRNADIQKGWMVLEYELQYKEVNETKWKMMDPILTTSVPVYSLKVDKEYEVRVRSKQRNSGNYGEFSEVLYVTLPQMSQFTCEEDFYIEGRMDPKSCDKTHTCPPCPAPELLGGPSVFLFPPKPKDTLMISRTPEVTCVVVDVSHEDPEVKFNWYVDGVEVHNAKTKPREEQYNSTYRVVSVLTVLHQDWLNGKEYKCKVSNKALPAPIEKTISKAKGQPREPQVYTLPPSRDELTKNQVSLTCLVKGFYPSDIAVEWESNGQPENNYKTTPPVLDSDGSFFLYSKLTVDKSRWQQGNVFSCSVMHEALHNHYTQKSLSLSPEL
row,SMILES,Kd [nM]
1,CC(C)[C@@H]1NC(=O)[C@H](C(C)C)NC(=O)[C@@H]2CCCCNC(=O)Cn3cc(c4ccccc43)C[C@H](NC(=O)[C@H](CC(N)=O)NC(=O)[C@H](CO)NC1=O)C(=O)N[C@@H](Cc1ccc(O)cc1)C(=O)N[C@@H](CCCCN)C(=O)N[C@@H](Cc1c[nH]c3ccc(O)cc13)C(=O)NC1(CCN(CC(=O)O)CC1)C(=O)N[C@@H](C(C)C)C(=O)N[C@H](C(=O)NCCCC[C@H](NC(=O)CC[C@H](NC(=O)CC[C@H](NC(=O)CCCCCCCCCCCCCCC(=O)O)C(=O)O)C(=O)O)C(N)=O)CSCC(=O)N[C@@H](Cc1ccc(O)cc1)C(=O)N2C [Compound 29] ({CH2CO}-Y[NMeK]VVSN[Trp(1-CH2CO)]YK[Trp(5-OH)][X7]VC-X3; lactam 2-7; thioether N-13),1.57
2,CC(C)[C@@H]1NC(=O)[C@H](C(C)C)NC(=O)[C@@H]2CCCCNC(=O)Cn3cc(c4ccccc43)C[C@H](NC(=O)[C@H](CC(N)=O)NC(=O)[C@H](CO)NC1=O)C(=O)N[C@@H](Cc1ccc(C(=O)O)cc1)C(=O)N[C@@H](CCCCN)C(=O)N[C@@H](Cc1c[nH]c3ccc(O)cc13)C(=O)NC(C)(C)C(=O)N[C@@H](C(C)C)C(=O)N[C@H](C(=O)NCCCC[C@H](NC(=O)CC[C@H](NC(=O)CC[C@H](NC(=O)CCCCCCCCCCCCCCC(=O)O)C(=O)O)C(=O)O)C(N)=O)CSCC(=O)N[C@@H](Cc1ccc(C(=O)O)cc1)C(=O)N2C [Compound 11] ({CH2CO}-[Phe(4-COOH)][NMeK]VVSN[Trp(1-CH2CO)][Phe(4-COOH)]K[Trp(5-OH)][Aib]VC-X3; lactam 2-7; thioether N-13),2.85
3,CC(C)[C@@H]1NC(=O)[C@H](C(C)C)NC(=O)[C@@H]2CCCCNC(=O)Cn3cc(c4ccccc43)C[C@H](NC(=O)[C@H](CC(N)=O)NC(=O)[C@H](CO)NC1=O)C(=O)N[C@@H](Cc1ccc(O)cc1)C(=O)N[C@@H](CCCCNC(=O)N1CCN(CC(=O)O)CC1)C(=O)N[C@@H](Cc1c[nH]c3ccc(O)cc13)C(=O)NC(C)(C)C(=O)N[C@@H](C(C)C)C(=O)N[C@H](C(=O)NCCCC[C@H](NC(=O)CC[C@H](NC(=O)CC[C@H](NC(=O)CCCCCCCCCCCCCCC(=O)O)C(=O)O)C(=O)O)C(N)=O)CSCC(=O)N[C@@H](Cc1ccc(O)cc1)C(=O)N2C [Compound 27] ({CH2CO}-Y[NMeK]VVSN[Trp(1-CH2CO)]YK([CO-Piperazinyl(4-CH2COOH)])[Trp(5-OH)][Aib]VC-X3; lactam 2-7; thioether N-13),1.79
4,CC(C)[C@@H]1NC(=O)[C@H](C(C)C)NC(=O)[C@@H]2CCCCNC(=O)Cn3cc(c4ccccc43)C[C@H](NC(=O)[C@H](CC(N)=O)NC(=O)[C@H](CO)NC1=O)C(=O)N[C@@H](Cc1ccc(O)cc1)C(=O)N[C@@H](CCCCN)C(=O)N[C@@H](Cc1c[nH]c3ccc(O)cc13)C(=O)NC(C)(C)C(=O)N[C@@H](C(C)C)C(=O)N[C@H](C(=O)NCC(N)=O)CSCC(=O)N[C@@H](Cc1ccc(O)cc1)C(=O)N2C [Compound 1] ({CH2CO}-Y[NMeK]VVSN[Trp(1-CH2CO)]YK[Trp(5-OH)][Aib]VCG-NH2; lactam 2-7; thioether N-13; C-terminus assumed),0.7

# Same assay, conditions: SPR, hGhR; Table 2 monocyclic peptides; KD calculated from ka and kd; read-out: KD
row,SMILES,Kd [nM]
1,COc1ccc2[nH]cc(C[C@@H]3NC(=O)[C@H](CC(N)=O)NC(=O)[C@H](CO)NC(=O)[C@H](C(C)C)NC(=O)[C@H](C(C)C)NC(=O)[C@H](CCCCNC(=O)CC[C@H](NC(=O)CCCc4ccc(I)cc4)C(=O)O)N(C)C(=O)[C@H](Cc4ccc(C(=O)O)cc4)NC(=O)CSC[C@@H](C(N)=O)NC(=O)[C@H](C(C)C)NC(=O)C(C)(C)NC(=O)[C@H](Cc4c[nH]c5ccc(O)cc45)NC(=O)[C@H](CCCCNC(=O)N4CCN(CC(=O)O)CC4)NC(=O)[C@H](Cc4ccc(C(=O)O)cc4)NC3=O)c2c1 [Compound 35] ({CH2CO}-[Phe(4-COOH)][NMeK]([γGlu-Butanoyl(4-(4-I-phenyl))])VVSN[Trp(5-OMe)][Phe(4-COOH)]K([CO-Piperazinyl(4-CH2COOH)])[Trp(5-OH)][Aib]VC-NH2; thioether N-13),5.47
2,COc1ccc2[nH]cc(C[C@@H]3NC(=O)[C@H](CC(N)=O)NC(=O)[C@H](CO)NC(=O)[C@H](C(C)C)NC(=O)[C@H](C(C)C)NC(=O)[C@H](CCCCNC(=O)CC[C@H](NC(=O)CC[C@H](NC(=O)CCCc4ccc(I)cc4)C(=O)O)C(=O)O)N(C)C(=O)[C@H](Cc4ccc(C(=O)O)cc4)NC(=O)CSC[C@@H](C(=O)NCC(=O)N4CCC[C@H]4C(=O)N[C@H](CO)C(=O)N[C@H](CO)C(=O)N[C@H](CO)C(N)=O)NC(=O)[C@H](C(C)C)NC(=O)C(C)(C)NC(=O)[C@H](Cc4c[nH]c5ccc(O)cc45)NC(=O)[C@H](CCCCN)NC(=O)[C@H](Cc4ccc(C(=O)O)cc4)NC3=O)c2c1 [Compound 42] ({CH2CO}-[Phe(4-COOH)][NMeK]([γGlu-γGlu-Butanoyl(4-(4-I-phenyl))])VVSN[Trp(5-OMe)][Phe(4-COOH)]K[Trp(5-OH)][Aib]VCGP[dS][dS][dS]-NH2; thioether N-13),3.79
3,COc1ccc2[nH]cc(C[C@@H]3NC(=O)[C@H](CC(N)=O)NC(=O)[C@H](CO)NC(=O)[C@H](C(C)C)NC(=O)[C@H](C(C)C)NC(=O)[C@H](CCCCNC(=O)CC[C@H](NC(=O)CC[C@H](NC(=O)CCCc4ccc(I)cc4)C(=O)O)C(=O)O)N(C)C(=O)[C@H](Cc4ccc(O)cc4)NC(=O)CSC[C@@H](C(N)=O)NC(=O)[C@H](C(C)C)NC(=O)C(C)(C)NC(=O)[C@H](Cc4c[nH]c5ccc(O)cc45)NC(=O)[C@H](CCCCNC(=O)N4CCN(CC(=O)O)CC4)NC(=O)[C@H](Cc4ccc(C(=O)O)cc4)NC3=O)c2c1 [Compound 47] ({CH2CO}-Y[NMeK]([γGlu-γGlu-Butanoyl(4-(4-I-phenyl))])VVSN[Trp(5-OMe)][Phe(4-COOH)]K([CO-Piperazinyl(4-CH2COOH)])[Trp(5-OH)][Aib]VC-NH2; thioether N-13),7.38
4,COc1ccc2[nH]cc(C[C@@H]3NC(=O)[C@H](CC(N)=O)NC(=O)[C@H](CO)NC(=O)[C@H](C(C)C)NC(=O)[C@H](C(C)C)NC(=O)[C@H](CCCCNC(=O)CC[C@H](NC(=O)CC[C@H](NC(=O)CCCc4ccc(I)cc4)C(=O)O)C(=O)O)N(C)C(=O)[C@H](Cc4ccc(C(=O)O)cc4)NC(=O)CSC[C@@H](C(N)=O)NC(=O)[C@H](C(C)C)NC(=O)C(C)(C)NC(=O)[C@H](Cc4c[nH]c5ccc(O)cc45)NC(=O)[C@H](CCCCN)NC(=O)[C@H](Cc4ccc(C(=O)O)cc4)NC3=O)c2c1 [Compound 40] ({CH2CO}-[Phe(4-COOH)][NMeK]([γGlu-γGlu-Butanoyl(4-(4-I-phenyl))])VVSN[Trp(5-OMe)][Phe(4-COOH)]K[Trp(5-OH)][Aib]VC-NH2; thioether N-13),2.96
5,COc1ccc2[nH]cc(C[C@@H]3NC(=O)[C@H](CC(N)=O)NC(=O)[C@H](CO)NC(=O)[C@H](C(C)C)NC(=O)[C@H](C(C)C)NC(=O)[C@H](CCCCNC(=O)CC[C@H](NC(=O)CCCc4ccc(I)cc4)C(=O)O)N(C)C(=O)[C@H](Cc4ccncc4)NC(=O)CSC[C@@H](C(N)=O)NC(=O)[C@H](C(C)C)NC(=O)C(C)(C)NC(=O)[C@H](Cc4c[nH]c5ccc(O)cc45)NC(=O)[C@H](CCCCN)NC(=O)[C@H](Cc4ccc(C(=O)O)cc4)NC3=O)c2c1 [Compound 34] ({CH2CO}-[4Pal][NMeK]([γGlu-Butanoyl(4-(4-I-phenyl))])VVSN[Trp(5-OMe)][Phe(4-COOH)]K[Trp(5-OH)][Aib]VC-NH2; thioether N-13),2.77
